Earlier results in US5574025A, “Inhibitors of prenyl-protein transferases” (Merck & Co., Inc., priority 1994, dated 1996).

Tested on: Ras
Conditions: Hancock et al., Casey et al., Schafer et al.

Row | SMILES | Inhibition of Ras famesylation in vivo
1 | CC[C@H](C)C(=O)O[C@H]1C[C@@H](C)C=C2C=C[C@H](C)[C@H](CC[C@@H]3C[C@@H](O)CC(=O)O3)[C@H]21 [Lovastatin] | Inhibition of Ras famesylation in vivo has been demonstrated
2 | CC[C@H](C)C(=O)O[C@H]1CCC=C2C=C[C@H](C)[C@H](CC[C@@H]3C[C@@H](O)CC(=O)O3)[C@H]21 [compactin] | Inhibition of Ras famesylation in vivo has been demonstrated
